Test results from US8952024B2, “Herbicidal pyrimidone derivatives” (E I du Pont de Nemours and Company, priority 2009, dated 2015).
Like-named read-outs stand apart in the source and are kept apart here.

How the values were obtained:
Type in all cases: in vivo
[1] = test system: chickweed (Stellaria media); assay: Test B postemergence plant response; details: Postemergence
Outline: (§1)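 Plants grown in peat/vermiculite medium were sprayed postemergence at 2–18 cm height (1- to 4-leaf stage). After 13–15 days in the greenhouse, response was rated visually against untreated controls on a 0–100 scale (0 no effect, 100 complete control).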

[2] = test system: winter barley (Hordeum vulgare); assay: Test B postemergence plant response; details: Postemergence
Outline: as §1

[3] = test system: canarygrass (Phalaris minor); assay: Test B postemergence plant response; details: Postemergence
Outline: as §1

[4] = test system: downy bromegrass (Bromus tectorum); assay: Test B pre-/postemergence plant response; details: for pest or weed control at 31 g/ha: 31 g ai/ha, scale 0 to 100 (0 no effect, 100 complete control); for pest or weed control at 62 g/ha: 62 g ai/ha
Outline: (§2)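 Plants treated either at seeding (loam/sand soil) or postemergence at 2 to 18 cm height, using a surfactant-containing non-phytotoxic solvent formulation. Evaluation was visual after 13 to 15 days, 0 to 100 scale relative to controls.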

[5] = test system: bermudagrass (Cynodon dactylon); assay: Test B pre-/postemergence plant response; details: for pest or weed control at 31 g/ha: 31 g ai/ha, scale 0 to 100 (0 no effect, 100 complete control)
Outline: as §2

[6] = test system: corn (Zea mays); assay: Test B pre-/postemergence plant response; details: for Corn plant response rating (crop injury, 0 = no effect, 100 = complete kill) at 31 g/ha: 31 g ai/ha, scale 0 to 100 (0 no effect, 100 complete control)
Outline: as §2

[7] = test system: goosegrass (Eleusine indica); assay: Test B pre-/postemergence plant response; details: for pest or weed control at 62 g/ha: 62 g ai/ha
Outline: as §2

[8] = test system: wheat (Triticum aestivum); assay: Test B pre-/postemergence plant response
Outline: as §2

[9] = test system: velvetleaf (Abutilon theophrasti); assay: Test B pre-/postemergence plant response
Outline: as §2

[10] = test system: pigweed (Amaranthus retroflexus); assay: Test B pre-/postemergence plant response; details: Amaranthus retroflexus, post-emergence, Postemergence, scale 0 (no effect) to 100 (complete control)
Outline: as §2

[11] = Postemergence, 250 g ai/ha, scale 0 to 100
[12] = Preemergence, 125 g ai/ha, 0 to 100 scale

With `Cc1c(F)cccc1-n1c(-c2ccccc2)ncc(C(=O)C2=C(O)CCCC2=O)c1=O` [Compound 47, 3-(3-fluoro-2-methylphenyl)-5-[(2-hydroxy-6-oxo-1-cyclohexen-1-yl)carbonyl]-2-phenyl-4(3H)-pyrimidinone] the “Chickweed plant response rating” value ([1]; 250 g ai/ha, scale 0 to 100) was 100, the pest or weed control at 31 g/ha ([1]; Stellaria media, post-emergence, 360 h, 31 g ai/ha, scale 0 to 100 (0 no effect, 100 complete control), read-out: Plant response rating, Chickweed) was 85% and the pest or weed control at 62 g/ha ([1]; Stellaria media, post-emergence, 360 h, 62 g ai/ha, scale 0 (no effect) to 100 (complete control), 13 to 15 days, read-out: Plant response rating, Chickweed) was 98%. It also gave a pest or weed control at 125 g/ha ([1]; Stellaria media, post-emergence, 360 h, 125 g ai/ha, visual rating after 13 to 15 days, scale 0 (no effect) to 100 (complete control)) of 100%, a plant injury at 31 g/ha ([2]; Hordeum vulgare, post-emergence, 31 g ai/ha, scale 0 to 100 (0 no effect, 100 complete control), read-out: Plant response rating, Barley) of 5% and a plant injury at 62 g/ha ([2]; Hordeum vulgare, post-emergence, 62 g ai/ha, scale 0 (no effect) to 100 (complete control), 13 to 15 days, read-out: Plant response rating, Barley) of 10%. For the same molecule, the plant injury at 125 g/ha ([2]; Hordeum vulgare, post-emergence, 125 g ai/ha, visual rating after 13 to 15 days, scale 0 (no effect) to 100 (complete control)) was 10%, the “Barley plant response rating” value ([2]; 250 g ai/ha, scale 0 to 100) was 35 and the pest or weed control at 31 g/ha ([3]; Phalaris minor, post-emergence, 360 h, 31 g ai/ha, scale 0 to 100 (0 no effect, 100 complete control), read-out: Plant response rating, Canarygrass) was 20%. For the same molecule, the pest or weed control at 62 g/ha ([3]; Phalaris minor, post-emergence, 360 h, 62 g ai/ha, scale 0 (no effect) to 100 (complete control), 13 to 15 days, read-out: Plant response rating, Canarygrass) was 30%, the pest or weed control at 125 g/ha ([3]; Phalaris minor, post-emergence, 360 h, 125 g ai/ha, visual rating after 13 to 15 days, scale 0 (no effect) to 100 (complete control)) was 40% and the “Canarygrass plant response rating” value ([3]; 250 g ai/ha, scale 0 to 100) was 40. It also gave a pest or weed control at 31 g/ha ([4]; Bromus tectorum, post-emergence, Postemergence, read-out: Plant response rating, Bromegrass, Downy) of 35%, a pest or weed control at 62 g/ha ([4]; Bromus tectorum, post-emergence, Postemergence, scale 0 (no effect) to 100 (complete control), 13 to 15 days, read-out: Plant response rating, Bromegrass, Downy) of 40% and a pest or weed control at 125 g/ha ([4]; Bromus tectorum, post-emergence, Postemergence, 125 g ai/ha, visual rating after 13 to 15 days, scale 0 (no effect) to 100 (complete control)) of 50%. The pest or weed control at 250 g/ha ([4]; Bromus tectorum, pre-emergence, 250 g ai/ha, Preemergence, 0 to 100 scale, read-out: Plant response rating, Bromegrass, Downy) was 10%, the pest or weed control at 31 g/ha ([4]; Bromus tectorum, pre-emergence, Preemergence, read-out: Plant response rating, Bromegrass, Downy) was 0% and the pest or weed control at 62 g/ha ([4]; Bromus tectorum, pre-emergence, Preemergence, scale 0 to 100, 0 no effect, 100 complete control, read-out: Plant response rating, Bromegrass, Downy) was 5%. For the same molecule, the “Bromegrass, Downy plant response rating” value [4, 11] was 55, the “Bromegrass, Downy plant response rating” value [4, 12] was 5 and the pest or weed control at 31 g/ha ([5]; Cynodon dactylon, post-emergence, Postemergence, read-out: Plant response rating, Bermudagrass) was 85%. It also gave a pest or weed control at 125 g/ha ([5]; Cynodon dactylon, post-emergence, Postemergence, 125 g ai/ha, visual rating after 13 to 15 days, scale 0 (no effect) to 100 (complete control)) of 98%, a pest or weed control at 250 g/ha ([5]; Cynodon dactylon, pre-emergence, 250 g ai/ha, Preemergence, 0 to 100 scale, read-out: Plant response rating, Bermudagrass) of 100% and a pest or weed control at 31 g/ha ([5]; Cynodon dactylon, pre-emergence, Preemergence, read-out: Plant response rating, Bermudagrass) of 100%. For the same molecule, the pest or weed control at 62 g/ha ([5]; Cynodon dactylon, pre-emergence, Preemergence, 62 g ai/ha, scale 0 to 100, 0 no effect, 100 complete control, read-out: Plant response rating, Bermudagrass) was 100%, the “Bermudagrass plant response rating” value [5, 12] was 100 and the “Corn plant response rating” value [6, 12] was 0. For the same molecule, the Corn plant response rating (crop injury, 0 = no effect, 100 = complete kill) at 31 g/ha ([6]; Zea mays, post-emergence, Postemergence) was 65%, the Corn plant response rating (crop injury, 0 = no effect, 100 = complete kill) at 125 g/ha ([6]; Zea mays, post-emergence, Postemergence, 125 g ai/ha, visual rating after 13 to 15 days, scale 0 (no effect) to 100 (complete control)) was 80% and the Corn plant response rating (crop injury, 0 = no effect, 100 = complete kill) at 250 g/ha ([6]; Zea mays, pre-emergence, 250 g ai/ha, Preemergence, 0 to 100 scale) was 0%. The Corn plant response rating (crop injury, 0 = no effect, 100 = complete kill) at 31 g/ha ([6]; Zea mays, pre-emergence, Preemergence) was 0%, the Corn plant response rating (crop injury, 0 = no effect, 100 = complete kill) at 62 g/ha ([6]; Zea mays, pre-emergence, Preemergence, 62 g ai/ha, scale 0 to 100, 0 no effect, 100 complete control) was 0% and the pest or weed control at 62 g/ha ([7]; Eleusine indica, post-emergence, Postemergence, scale 0 (no effect) to 100 (complete control), 13 to 15 days, read-out: Plant response rating, Goosegrass) was 95%. It also gave a pest or weed control at 125 g/ha ([7]; Eleusine indica, post-emergence, Postemergence, 125 g ai/ha, visual rating after 13 to 15 days, scale 0 (no effect) to 100 (complete control)) of 95%, a pest or weed control at 250 g/ha ([7]; Eleusine indica, pre-emergence, 250 g ai/ha, Preemergence, 0 to 100 scale, read-out: Plant response rating, Goosegrass) of 100% and a pest or weed control at 31 g/ha ([7]; Eleusine indica, pre-emergence, Preemergence, 31 g ai/ha, scale 0 to 100 (0 no effect, 100 complete control), read-out: Plant response rating, Goosegrass) of 95%. For the same molecule, the pest or weed control at 62 g/ha ([7]; Eleusine indica, pre-emergence, Preemergence, scale 0 to 100, 0 no effect, 100 complete control, read-out: Plant response rating, Goosegrass) was 100%, the “Goosegrass plant response rating” value [7, 11] was 98 and the “Goosegrass plant response rating” value [7, 12] was 100. For the same molecule, the “Wheat plant response rating” value [8, 12] was 0, the plant injury at 62 g/ha ([8]; Triticum aestivum, post-emergence, Postemergence, 62 g ai/ha, scale 0 (no effect) to 100 (complete control), 13 to 15 days, read-out: Plant response rating, Wheat) was 0% and the plant injury at 125 g/ha ([8]; Triticum aestivum, post-emergence, Postemergence, 125 g ai/ha, visual rating after 13 to 15 days, scale 0 (no effect) to 100 (complete control)) was 5%. The plant injury at 250 g/ha ([8]; Triticum aestivum, pre-emergence, 250 g ai/ha, Preemergence, 0 to 100 scale, read-out: Plant response rating, Wheat) was 0%, the plant injury at 31 g/ha ([8]; Triticum aestivum, pre-emergence, Preemergence, 31 g ai/ha, scale 0 to 100 (0 no effect, 100 complete control), read-out: Plant response rating, Wheat) was 0% and the pest or weed control at 62 g/ha ([9]; Abutilon theophrasti, post-emergence, 360 h, Postemergence, 62 g ai/ha, scale 0 (no effect) to 100 (complete control), 13 to 15 days, read-out: Plant response rating, Velvetleaf) was 85%. For the same molecule, the pest or weed control at 125 g/ha ([9]; Abutilon theophrasti, post-emergence, 360 h, Postemergence, 125 g ai/ha, visual rating after 13 to 15 days, scale 0 (no effect) to 100 (complete control)) was 98%, the pest or weed control at 250 g/ha ([9]; Abutilon theophrasti, pre-emergence, 360 h, 250 g ai/ha, Preemergence, 0 to 100 scale, read-out: Plant response rating, Velvetleaf) was 100% and the pest or weed control at 31 g/ha ([9]; Abutilon theophrasti, pre-emergence, 360 h, Preemergence, 31 g ai/ha, scale 0 to 100 (0 no effect, 100 complete control), read-out: Plant response rating, Velvetleaf) was 80%. The “Velvetleaf plant response rating” value [9, 12] was 90, the pest or weed control at 62 g/ha ([10]; 62 g ai/ha, 13 to 15 days, read-out: Plant response rating, Pigweed) was 98% and the pest or weed control at 125 g/ha ([10]; 125 g ai/ha, visual rating after 13 to 15 days) was 100%.
